# Results reported in US4100346A, “Certain 7(o-amino-methyl- or methylaminomethylphenyl- or cyclohexadienyl- or thienylacetamide)-3[1-carboxymethyl-(or ethyl- or propyl-)-tetrazol-5-ylthiomethyl]-3-cephem-4-carboxylic acids” (Bristol-Myers Company, priority 1976, dated 1978).
# Read-outs that look alike come from different tables or passages of the source.
# Experiments:
# Clostridium sp. = test: microbe, parasite or virus in culture; type: cell-based; conditions: read-out: Minimum inhibitory concentration
# Experimental: Antibiotic spectrum. […] Procedures were as follows:
# c. Obligate anaerobes. The assay was performed on solid medium, consisting of Brain Heart Infusion Broth (BBL) supplemented with 5% defibrinated sheep blood and 1% Ionagar (Colab).
# Enterobacter aerogenes = test: Minimum growth inhibitory and bactericidal concentrations for Enterobacteriaceae; type: cell-based; conditions: Klebsiella aerogenes, inoculum 10^4 cells; for MBC: read-out: MBC, minimum bactericidal concentration; for MIC: read-out: MIC, Minimum growth inhibitory concentration
# Description: (§1) Miscellaneous. Methods for determining bactericidal activity and susceptibility to cell-free β-lactamase were those previously used; Leitner et al., BL-S640, A Cephalosporin With a Broad Spectrum of Antibacterial Activity: Properties in vitro, Antimicrob. Agents Chemother. 7:298-305 (1975).
# (§2) *MIC, Minimum growth inhibitory concentration; MBC, minimum bactericidal
# (§3) concentration; expressed as micrograms per milliliter. The inoculum was […]
# Enterobacter cloacae [1] = test: as above; type: cell-based; conditions: for MBC: read-out: MBC, minimum bactericidal concentration; for MIC: read-out: MIC, Minimum growth inhibitory concentration
# Description: as §1, §2, §3
# Escherichia coli = test: as above; type: cell-based; conditions: for MBC: read-out: MBC, minimum bactericidal concentration; for MIC: read-out: MIC, Minimum growth inhibitory concentration
# Description: as §1, §2, §3
# Klebsiella pneumoniae = test: as above; type: cell-based; conditions: for MBC: read-out: MBC, minimum bactericidal concentration; for MIC: read-out: MIC, Minimum growth inhibitory concentration
# Description: as §1, §2, §3
# Proteus mirabilis = test: as above; type: cell-based; conditions: for MBC: read-out: MBC, minimum bactericidal concentration; for MIC: read-out: MIC, Minimum growth inhibitory concentration
# Description: as §1, §2, §3
# Proteus rettgeri [2] = test: as above; type: cell-based; conditions: Providencia rettgeri, inoculum 10^4 cells; for MBC: read-out: MBC, minimum bactericidal concentration; for MIC: read-out: MIC, Minimum growth inhibitory concentration
# Description: as §1, §2, §3
# Proteus vulgaris [3] = test: as above; type: cell-based; conditions: Proteus vulgaris, inoculum 10^4 cells; for MBC: read-out: MBC, minimum bactericidal concentration; for MIC: read-out: MIC, Minimum growth inhibitory concentration
# Description: as §1, §2, §3
# [4] = target: staphylococcal β-lactamase, Staphylococcus aureus A9606 (Staphylococcus aureus, UniProt P00807); test: Hydrolysis by β-lactamase in cell-free extracts; type: biochemical; conditions: cell-free extract
# Experimental: as §1
# Susceptibility to β-lactamase. Susceptibility to enzymic hydrolysis was assessed by determining relative rates of hydrolysis by cell-free preparations of various β-lactamases (Table 6). BL-S786 was slightly to markedly less susceptible than the other cephalosporins to hydrolysis by β-lactamases of Type Ia, Ib, IIIa and IVa. All cephalosporins were poor substrates for Type IIa and staphylococcal β-lactamases. The four cephalosporins were hydrolyzed at similar rates by the Type IVb enzyme.
# Enterobacter cloacae [5] = test: Intramuscular treatment of systemically infected mice; type: in vivo; conditions: im
# Description: Treatment of Systemically Infected Mice. The procedures were identical with those published previously [Leitner et al., BL-S640, a Cephalosporin With a Broad Spectrum of Antibacterial Activity: Bioavailability and Therapeutic Properties in Rodents, Antimicrob. Agents Chemother.
# (a) the hog gastric mucin used in infections with Staphylococcus aureus No. 2 was purchased from American Laboratories, Inc., Omaha, Neb.
# Arizona hinshawii = test: Growth inhibitory activity, antibiotic dilution technique; conditions: Salmonella enterica, read-out: Minimum inhibitory concentration
# Serratia marcescens = test: as above; conditions: read-out: Minimum inhibitory concentration
# Pseudomonas aeruginosa = test: as above; conditions: read-out: Minimum inhibitory concentration
# Alcaligenes sp. = test: as above
# Providencia stuartii = test: as above
# Proteus rettgeri [6] = test: as above
# Haemophilus influenzae = test: as above; conditions: including 9 ampicillin-resistant strains
# Proteus vulgaris [7] = test: Effect of inoculum size on susceptibility of Enterobacteriaceae
# [8] = Enterobacter aerogenes strain 1
# [9] = Enterobacter aerogenes strain 2
# [10] = Enterobacter aerogenes strain 3
# [11] = Enterobacter cloacae strain 3, inoculum 10^4 cells
# [12] = Enterobacter cloacae strain 4, inoculum 10^4 cells
# [13] = Enterobacter cloacae strain 8, inoculum 10^4 cells
# [14] = Escherichia coli strain 1, inoculum 10^4 cells
# [15] = Escherichia coli strain 2, inoculum 10^4 cells
# [16] = Escherichia coli strain 3, inoculum 10^4 cells
# [17] = Escherichia coli strain 4, inoculum 10^4 cells
# [18] = Escherichia coli strain 5, inoculum 10^4 cells
# [19] = Escherichia coli strain 6, inoculum 10^4 cells
# [20] = Klebsiella pneumoniae strain 1, inoculum 10^4 cells
# [21] = Klebsiella pneumoniae strain 2, inoculum 10^4 cells
# [22] = Klebsiella pneumoniae strain 3, inoculum 10^4 cells
# [23] = Klebsiella pneumoniae strain 4, inoculum 10^4 cells
# [24] = Klebsiella pneumoniae strain 5, inoculum 10^4 cells
# [25] = Klebsiella pneumoniae strain 6, inoculum 10^4 cells
# [26] = Proteus mirabilis strain 1, inoculum 10^4 cells
# [27] = Proteus mirabilis strain 2, inoculum 10^4 cells
# [28] = Proteus mirabilis strain 3, inoculum 10^4 cells
# [29] = Proteus mirabilis strain 4, inoculum 10^4 cells
# [30] = Proteus mirabilis strain 5, inoculum 10^4 cells
# staphylococcal β-lactamase, Staphylococcus aureus A9606, sequence (P00807 25-281): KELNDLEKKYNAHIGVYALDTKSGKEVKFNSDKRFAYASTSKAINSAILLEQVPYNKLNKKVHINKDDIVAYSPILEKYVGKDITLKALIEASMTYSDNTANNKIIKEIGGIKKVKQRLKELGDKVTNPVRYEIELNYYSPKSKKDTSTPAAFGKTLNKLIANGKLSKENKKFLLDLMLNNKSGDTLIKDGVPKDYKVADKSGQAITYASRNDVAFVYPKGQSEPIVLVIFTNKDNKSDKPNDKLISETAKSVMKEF
compound,measurement,setting,value
O=C(Cc1cccs1)N[C@@H]1C(=O)N2C(C(=O)[O-])=C(C[n+]3ccccc3)CS[C@H]12 [Cephaloridine],MIC,Clostridium sp.,0.63 µg/mL
same,MBC,Enterobacter aerogenes; [8],> 250 µg/mL
same,MIC,Enterobacter aerogenes; [8],> 250 µg/mL
same,MBC,Enterobacter aerogenes; [9],> 250 µg/mL
same,MIC,Enterobacter aerogenes; [9],250 µg/mL
same,MBC,Enterobacter aerogenes; [10],250 µg/mL
same,MIC,Enterobacter aerogenes; [10],250 µg/mL
same,MBC,Enterobacter cloacae [1]; [11],16 µg/mL
same,MIC,Enterobacter cloacae [1]; [11],16 µg/mL
same,MBC,Enterobacter cloacae [1]; [12],> 250 µg/mL
same,MIC,Enterobacter cloacae [1]; [12],> 250 µg/mL
same,MBC,Enterobacter cloacae [1]; [13],> 250 µg/mL
same,MIC,Enterobacter cloacae [1]; [13],> 250 µg/mL
same,MBC,Escherichia coli; [14],4 µg/mL
same,MIC,Escherichia coli; [14],4 µg/mL
same,MBC,Escherichia coli; [15],16 µg/mL
same,MIC,Escherichia coli; [15],16 µg/mL
same,MBC,Escherichia coli; [16],2 µg/mL
same,MIC,Escherichia coli; [16],2 µg/mL
same,MBC,Escherichia coli; [17],4 µg/mL
same,MIC,Escherichia coli; [17],4 µg/mL
same,MBC,Escherichia coli; [18],4 µg/mL
same,MIC,Escherichia coli; [18],4 µg/mL
same,MBC,Escherichia coli; [19],8 µg/mL
same,MIC,Escherichia coli; [19],4 µg/mL
same,MBC,Klebsiella pneumoniae; [20],4 µg/mL
same,MIC,Klebsiella pneumoniae; [20],2 µg/mL
same,MBC,Klebsiella pneumoniae; [21],4 µg/mL
same,MIC,Klebsiella pneumoniae; [21],4 µg/mL
same,MBC,Klebsiella pneumoniae; [22],2 µg/mL
same,MIC,Klebsiella pneumoniae; [22],2 µg/mL
same,MBC,Klebsiella pneumoniae; [23],4 µg/mL
same,MIC,Klebsiella pneumoniae; [23],4 µg/mL
same,MBC,Klebsiella pneumoniae; [24],8 µg/mL
same,MIC,Klebsiella pneumoniae; [24],8 µg/mL
same,MBC,Klebsiella pneumoniae; [25],2 µg/mL
same,MIC,Klebsiella pneumoniae; [25],2 µg/mL
same,MBC,Proteus mirabilis; [26],16 µg/mL
same,MIC,Proteus mirabilis; [26],8 µg/mL
same,MBC,Proteus mirabilis; [27],8 µg/mL
same,MIC,Proteus mirabilis; [27],8 µg/mL
same,MBC,Proteus mirabilis; [28],8 µg/mL
same,MIC,Proteus mirabilis; [28],8 µg/mL
same,MBC,Proteus mirabilis; [29],8 µg/mL
same,MIC,Proteus mirabilis; [29],8 µg/mL
same,MBC,Proteus mirabilis; [30],8 µg/mL
same,MIC,Proteus mirabilis; [30],4 µg/mL
same,MBC,Proteus rettgeri [2]; Proteus rettgeri strain 2,0.5 µg/mL
same,MIC,Proteus rettgeri [2]; Proteus rettgeri strain 2,0.5 µg/mL
same,MBC,Proteus rettgeri [2]; Proteus rettgeri strain 3,> 250 µg/mL
same,MIC,Proteus rettgeri [2]; Proteus rettgeri strain 3,32 µg/mL
same,MBC,Proteus vulgaris [3]; Proteus vulgaris strain 1,8 µg/mL
same,MIC,Proteus vulgaris [3]; Proteus vulgaris strain 1,8 µg/mL
same,MBC,Proteus vulgaris [3]; Proteus vulgaris strain 2,16 µg/mL
same,MIC,Proteus vulgaris [3]; Proteus vulgaris strain 2,8 µg/mL
same,MBC,Proteus vulgaris [3]; Proteus vulgaris strain 4,16 µg/mL
same,MIC,Proteus vulgaris [3]; Proteus vulgaris strain 4,8 µg/mL
same,Relative Rate of Hydrolysis (benzylpenicillin = 100),[4],< 0.5
same,ED50,"Enterobacter cloacae [5]; Enterobacter cloacae, 3.5 h, read-out: PD50 /treatment",200 mg/kg
same,PD50 /treatment,"Enterobacter cloacae [5]; mouse, in vivo",> 400 mg/kg
same,MIC,Arizona hinshawii,2 µg/mL
same,MIC,Serratia marcescens,> 125 µg/mL
same,MIC,Pseudomonas aeruginosa,> 125 µg/mL
same,MIC,"Alcaligenes sp.; read-out: Minimum inhibitory concentration, Alcaligenes sp., 2 strains, geometric mean when applicable",> 125 µg/mL
same,MIC,"Alcaligenes sp.; read-out: Minimum inhibitory concentration, Alcaligenes sp., 4 strains, geometric mean when applicable",> 125 µg/mL
same,MIC,"Alcaligenes sp.; read-out: Minimum inhibitory concentration, Alcaligenes sp., 5 strains, geometric mean when applicable",6.1 µg/mL
same,percent of strains inhibited,Providencia stuartii,negligible
same,percent of strains inhibited,Proteus rettgeri [6],negligible
same,relative activity against Haemophilus influenzae,Haemophilus influenzae,about equally active
same,MIC,"Proteus vulgaris [7]; read-out: Minimum Inhibitory Concentration, Proteus vulgaris strain 1, A, Inoculum of 10^2 organisms",4 µg/mL
same,MIC,"Proteus vulgaris [7]; read-out: Minimum Inhibitory Concentration, Proteus vulgaris strain 1, B, Inoculum of 10^6 organisms",16 µg/mL
same,MIC,"Proteus vulgaris [7]; read-out: Minimum Inhibitory Concentration, Proteus vulgaris strain 2, A, Inoculum of 10^2 organisms",8 µg/mL
same,MIC,"Proteus vulgaris [7]; read-out: Minimum Inhibitory Concentration, Proteus vulgaris strain 2, B, Inoculum of 10^6 organisms",250 µg/mL
same,MIC,"Proteus vulgaris [7]; read-out: Minimum Inhibitory Concentration, Proteus vulgaris strain 4, A, Inoculum of 10^2 organisms",8 µg/mL
same,MIC,"Proteus vulgaris [7]; read-out: Minimum Inhibitory Concentration, Proteus vulgaris strain 4, B, Inoculum of 10^6 organisms",16 µg/mL
